What was measured:
Assay type in all cases: in vivo
[1] = tested on: Cercospora beticola (leaf spot); test: Test 1 greenhouse foliar spray screen, leaf spot on sugar beet; conditions: disease control rating, foliar spray on sugar beet, 400 ppm (+++ at 100 ppm)
corn rootworm = test: Mite/insect screen, CRW; conditions: percent mortality; for mortality at 12 ppm / mortality at 24 ppm: read-out: CRW RESULTS %; for mortality at 24 ppm: CRW RATE 24.00 PPM
In short: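 Stock in acetone:alcohol 1:1 + TOXIMUL R 23 g/L + TOXIMUL S 13 g/L; diluted with water to indicated concentrations; mortality (%) after standard exposure.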

[2] = tested on: Septoria tritici (leaf blotch); test: Test 1 greenhouse foliar spray screen, leaf blotch on wheat; conditions: disease control rating, foliar spray on wheat, 400 ppm (+++ at 100 ppm)
[3] = tested on: melon aphids (Aphis gossypii Glover); test: Mite/insect screen, MA; conditions: percent mortality, SAW; for mortality at 200 ppm / mortality at 400 ppm: Aphis gossypii, read-out: MA RESULTS %; for mortality at 400 ppm: SM & MA RATE 400 PPM
In short: (§1)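 First, each compound was dissolved in an emulsifier-containing acetone/alcohol mixture and diluted with water. Next, leaves were sprayed until runoff and left to dry for an hour. For southern armyworm, two excised uninfested leaves went into a Petri dish with larvae; percent mortality followed standard exposure periods.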

[4] = tested on: Venturia inaequalis (apple scab); test: Test 1 greenhouse foliar spray screen, apple scab on apple seedling; conditions: disease control rating, foliar spray on apple seedling, 400 ppm (+++ at 100 ppm)
[5] = tested on: southern armyworm (Spodopetra eridania Cramer); test: Mite/insect screen, SAW; conditions: percent mortality, SAW; for mortality at 200 ppm / mortality at 400 ppm: Spodoptera eridania, read-out: SAW RESULTS %; for mortality at 400 ppm: SM & MA RATE 400 PPM
In short: as §1

[6] = tested on: Twospotted spider mites (Tetranychus urticae Koch); test: Mite/insect screen, SM; conditions: for mortality at 200 ppm / mortality at 400 ppm: Tetranychus urticae, read-out: SM RESULTS %; for mortality at 400 ppm: SM & MA RATE 400 PPM
In short: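 Read-out: percent mortality after standard exposure periods. Test solutions were water dilutions of compound dissolved in acetone/alcohol (50:50) with emulsifier blends; leaves were sprayed to runoff on both surfaces and air-dried for one hour before exposure.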

[7] = tested on: Erysiphe graminis tritici (powdery mildew); test: Test 1 greenhouse foliar spray screen, powdery mildew on wheat; conditions: disease control rating, foliar spray on wheat, 400 ppm (+++ at 100 ppm)
[8] = tested on: Puccinia recondita tritici (leaf rust); test: Test 1 greenhouse foliar spray screen, leaf rust on wheat; conditions: disease control rating, foliar spray on wheat, 400 ppm (+++ at 100 ppm)
[9] = tested on: Pyricularia oryzae (rice blast); test: whole plant or invertebrate; conditions: for RICE BLAST: disease control rating, foliar spray on rice, 400 ppm (+++ at 100 ppm)
[10] = tested on: Pseudoperonospora cubensis (downy mildew); test: Test 1 greenhouse foliar spray screen, downy mildew on squash; conditions: for DOWN MDEW: disease control rating, foliar spray on squash, 400 ppm (+++ at 100 ppm)
[11] = tested on: Botrytis cinerea (gray mold); test: Test 1 greenhouse foliar spray screen, gray mold on grape berries; conditions: disease control rating, spray on grape berries, 400 ppm (+++ at 100 ppm)
[12] = percent mortality, SAW, SM & MA RATE 200 PPM
[13] = summary statement in the description

Row | SMILES | LEAF SPOT [1] | mortality at 12 ppm (corn rootworm; CRW RATE 12.00 PPM) [%] | mortality at 24 ppm (corn rootworm) [%] | LEAF BLOT [2] | mortality at 200 ppm ([3]; SM & MA RATE 200 PPM) [%] | mortality at 400 ppm [3] [%] | APPL SCAB [4] | mortality at 200 ppm ([5]; SM & MA RATE 200 PPM) [%] | mortality at 400 ppm [5] [%] | mortality at 200 ppm [6, 12] [%] | mortality at 400 ppm ([6]; percent mortality, SAW) [%] | POWD MDEW [7] | LEAF RUST [8] | RICE BLAST [9] | DOWN MDEW [10] | GRAY MOLD [11] | also measured
1 | Cc1ccc2nccc(NCCc3ccc(Cl)cc3)c2c1 [Example 14, N-[2-(4-chlorophenyl)ethyl]-6-methyl-4-quinolinamine] | +++ (90-100% control at 100 ppm) | 0 | 0 | - (0-19% control at 400 ppm) | 0 | 0 | - (0-19% control at 400 ppm) | 0 | 0 | 0 | 0 | - (0-19% control at 400 ppm) | + (20-89% control at 400 ppm) | + (20-89% control at 400 ppm) | +++ (90-100% control at 100 ppm) | - (0-19% control at 400 ppm) | activity against downy mildew [10, 13]: particularly excellent activity
2 | CC(=O)N(CCc1ccc(Cl)cc1)c1ccnc2cc(Cl)ccc12 [Example 124, N-[2-(4-chlorophenyl)ethyl]-N-(7-chloro-4-quinolinyl)acetamide] | - (0-19% control at 400 ppm) | 0 | 0 | - (0-19% control at 400 ppm) | 0 | 0 | - (0-19% control at 400 ppm) | 0 | 0 | 0 | 0 | +++ (90-100% control at 100 ppm) | + (20-89% control at 400 ppm) | + (20-89% control at 400 ppm) | - (0-19% control at 400 ppm) | - (0-19% control at 400 ppm) | 
3 | CCc1ccc2nccc(NCCC3=CCCCC3)c2c1 [Example 145, N-[2-(1-cyclohexenyl)ethyl]-6-ethyl-4-quinolinamine] | + (20-89% control at 400 ppm) | 0 | 0 | - (0-19% control at 400 ppm) | 0 | 0 | - (0-19% control at 400 ppm) | 0 | 0 | 0 | 0 | - (0-19% control at 400 ppm) | + (20-89% control at 400 ppm) | + (20-89% control at 400 ppm) | +++ (90-100% control at 100 ppm) | - (0-19% control at 400 ppm) | 
4 | Fc1cccc2c(NCC(c3ccccc3)C3CCCCC3)ccnc12 (stereo not drawn) [Example 62, 8-fluoro-N-(2-cyclohexyl-2-phenylethyl)-4-quinolinamine] | - (0-19% control at 400 ppm) |  | 0 | + (20-89% control at 400 ppm) |  | 0 | - (0-19% control at 400 ppm) |  | 0 |  | 0 | - (0-19% control at 400 ppm) | ++ (90-100% control at 400 ppm) | ++ (90-100% control at 400 ppm) | +++ (90-100% control at 100 ppm) | - (0-19% control at 400 ppm) | 
5 | CC(C)(C)c1ccc(CCNc2ccnc3c(F)cccc23)cc1 [Example 111, N-[2-[4-(t-butyl)phenyl]ethyl]--8-fluoro-4-quinolinamine] | - (0-19% control at 400 ppm) | 0 | 0 | +++ (90-100% control at 100 ppm) | 0 | 0 | - (0-19% control at 400 ppm) | 20 | 20 | 90 | 80 | + (20-89% control at 400 ppm) | +++ (90-100% control at 100 ppm) | ++ (90-100% control at 400 ppm) | +++ (90-100% control at 100 ppm) | - (0-19% control at 400 ppm) | activity as miticides [6, 13]: particularly excellent activity; activity against rice blast [9, 13]: particularly excellent activity
6 | Fc1cccc2c(NCCc3ccc(Cl)cc3Cl)cc(Cl)nc12 [Example 98, 2-chloro-N-[2-(2,4-dichlorophenyl)ethyl]-8-fluoro-4-quinolinamine] | - (0-19% control at 400 ppm) | 0 |  | - (0-19% control at 400 ppm) | 0 |  | - (0-19% control at 400 ppm) | 0 |  | 0 |  | - (0-19% control at 400 ppm) | ++ (90-100% control at 400 ppm) | + (20-89% control at 400 ppm) | ++ (90-100% control at 400 ppm) | - (0-19% control at 400 ppm) | 
7 | Clc1ccc(CCCNc2ccnc3cc(Cl)ccc23)cc1 [Example 136, N-[3-(4-chlorophenyl)propyl]-7-chloro-4-quinolinamine] | - (0-19% control at 400 ppm) | 0 | 0 | - (0-19% control at 400 ppm) | 0 | 0 | - (0-19% control at 400 ppm) | 0 | 0 | 0 | 0 | + (20-89% control at 400 ppm) | - (0-19% control at 400 ppm) | - (0-19% control at 400 ppm) | +++ (90-100% control at 100 ppm) | - (0-19% control at 400 ppm) | 
8 | OCc1cnc2c(F)cccc2c1NCCc1ccccc1 [Example 73, 8-fluoro-4-[(2-phenylethyl)amino]-3-quinolinemethanol] | - (0-19% control at 400 ppm) | 0 |  | - (0-19% control at 400 ppm) | 0 |  | - (0-19% control at 400 ppm) | 0 |  | 0 |  | - (0-19% control at 400 ppm) | - (0-19% control at 400 ppm) | + (20-89% control at 400 ppm) | ++ (90-100% control at 400 ppm) | - (0-19% control at 400 ppm) | 
9 | Fc1cc(F)c2nccc(NCCc3ccsc3)c2c1 [Example 150, 6,8-difluoro-N-[2-(3-thienyl)ethyl]-4-quinolinamine] | +++ (90-100% control at 100 ppm) | 0 |  | +++ (90-100% control at 100 ppm) | 0 |  | - (0-19% control at 400 ppm) | 0 |  | 0 |  | + (20-89% control at 400 ppm) | ++ (90-100% control at 400 ppm) | + (20-89% control at 400 ppm) | ++ (90-100% control at 400 ppm) | - (0-19% control at 400 ppm) | CRW RESULTS % (corn rootworm; CRW RATE 12.00 PPM): 0%; MA RESULTS % ([3]; SM & MA RATE 200 PPM): 0%; SAW RESULTS % ([5]; SM & MA RATE 200 PPM): 0%; SM RESULTS % [6, 12]: 0%

Reference: patent EP0326331B1, “Substituted quinolines and cinnolines” (Dow AgroSciences LLC, priority 1988, dated 1989)
